Data set [1] deals with OPM-2 human multiple myeloma cancer xenograft. Description: Xenograft tumor growth inhibition assay (OPM-2). The note with it: for % TGI: QDx21, female SCID-beige mice; for % removed from study: QDx21, removed due to morbidity or weight loss in excess of 20%. In kind it is in vivo, mice. On the procedure:
Xenograft Tumor Growth Inhibition Assay
The effect of compounds of the examples to inhibit the growth of OPM-2 xenograft tumors implanted in mice was evaluated. A suspension of cancer cells (5×10^6 per 0.1 mL) prepared in RPMI culture medium (Invitrogen, Carlsbad, Calif.) was diluted 1:1 with a solution of Matrigel™ (BD Biosciences, Franklin Lakes, N.J.) and inoculated subcutaneously into the right hind flank of female SCID-beige (Charles River Labs) mice. […] Administration of compound or vehicle was initiated on the day following randomization and continued for 21 days. Tumors were measured twice a week throughout the treatment period using a pair of calipers and tumor volumes were calculated according to the formula V=L×W^2/2 (V: volume, mm^3; L: length, mm. W: width, […]) Tumor growth inhibition was calculated based on the mean tumor volume measured on the first day that the mean volume of the vehicle group exceeded 2000 mm^3 according to the formula % TGI=100−mean tumor volume of treatment group/mean tumor volume of control group×100.

For data set [2], the system named is LPS induced IL-6 production. Put plainly: LPS (lipopolysaccharide) induced IL-6 production mouse assay. The settings on record: SCID female mice, 3 mg/kg oral 1 h before LPS 2.5 mg/kg ip, serum IL-6 2 h after LPS; p<0.05. Format: in vivo, mice. On the procedure: LPS (Lipopolysaccharide) Induced IL-6 Production Mouse Assay
Compounds of the Examples listed in Table 2 were assayed for their ability to inhibit LPS (lipopolysaccharide) induced IL-6 (Interleukin-6) production in mice. Fox Chase SCID® female mice (Charles Rivers Labs, 5 per group) or CD1 female mice (5 mice per group) received an intraperitoneal challenge of lipopolysaccharide (2.5 mg/kg, L2630 E. coli 0111:B4) one hour after oral administration of compounds. Mice were euthanized 2 hours after lipopolysaccharide injection, blood was removed by cardiac puncture, and then the serum harvested from the blood samples was frozen at −80° C. On the day of the assay the serum samples were brought to room temperature and then diluted 1:20 in phosphate-buffered saline containing 2% bovine serum albumin. Interleukin-6 measurements were performed using a cytokine assay from Meso Scale Discovery (Gaithersburg, Md.) for mouse serum analysis according to the manufacturer's protocol and read on a SECTOR Imager 6000 (Meso Scale Discovery, Gaithersburg, Md.) instrument. Statistical analysis was performed using Prism software (version 5.0) incorporating Dunnett's one way ANOVA. The IL-6 mean and standard deviation of the group of vehicle treated animals were compared with the IL-6 mean and standard deviation of the group treated with drug. A p value <0.05 means that there is less than a 5% probability that the mean values in the two groups are equal.

Another data set addresses T1, BRD4 (BDI_K57-E168) (Homo sapiens, UniProt O60885).
T1 construct: BD1: amino acids K57-E168; made in house
Description: TR-FRET bromodomain binding assay, BRD4 first bromodomain. The settings on record: His-tagged BD1, 100 nM Alexa647 probe; assay protocol D or F as given per row in c1; Ki calculated from IC50.

The test system of data set [3] is breast cancer cell line MX-1. Put plainly: MX-1 cell line proliferation assay. In kind it is cell-based. The settings on record: Homo sapiens, MX1; MX-1 cells, 3-day (72 h) proliferation, Cell Titer Glo; read-out: Cellular proliferation: EC50. The procedure, abridged:
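MX-1 breast cancer cells (5000/well, RPMI 1640 + 10% FBS) adhered overnight, then got compound at final 3 μM down to 0.0001 μM (3-fold series) for a 3-day assay at 37 °C. Read-out: CellTiter-Glo luminescence normalized to DMSO; EC50 from sigmoidal fit.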

In another data set the target is T2, BRD4 (BDII_E352-M457) (Homo sapiens, UniProt O60885).
T2 construct: protocol; made in house
Description: TR-FRET bromodomain binding assay, BRD4 second bromodomain.

Marks after values point to notes of the source that are not given here.

The values that follow come from US8980879B2 (AbbVie Inc., priority 2013, dated 2015).

On to `Cn1cc2c3c(c[nH]c(=O)c31)CN(c1ccc(F)cc1)c1ccc(CS(C)(=O)=O)cc1-2` [Example 4], for which the “% TGI” value in data set [1] (3.75 mg/kg PO) was 68*** %; in data set [1] (7.5 mg/kg PO), 84*** %. The “% removed from study” value in data set [1] (3.75 mg/kg PO) was 11%; in data set [1] (7.5 mg/kg PO) it was 44%. Also, the “% inhibition at 3 mg/kg (LPS induced IL-6 production)” value in data set [2] came out at 70%. For the same molecule, the Ki is 0.61 nM on BRD4 (BDI_K57-E168) and 2.15 nM on BRD4 (BDII_E352-M457). Further, the EC50 in data set [3] came out at 1.39 nM.

As for `Cn1cc2c3c(c[nH]c(=O)c31)CN(c1ccc(F)cc1F)c1ccc(CS(C)(=O)=O)cc1-2` [Example 5], the figures for the “% TGI” value in data set [1] (2.5 mg/kg PO) and in data set [1] (5.0 mg/kg PO) were 66*** % and 81*** %, respectively. Also, the “% removed from study” value was 0% in data set [1] (2.5 mg/kg PO) and 44% in data set [1] (5.0 mg/kg PO). Also, the “% inhibition at 3 mg/kg (LPS induced IL-6 production)” value in data set [2] stood at 71%. The Ki on BRD4 (BDI_K57-E168) was 1.76 nM; at BRD4 (BDII_E352-M457), 1.95 nM. Moreover, the EC50 in data set [3] is 3.95 nM.
